Results on two molecules are retold here after patent publication US6878746B2, “Carbamate and thiocarbamate podophyllotoxin derivatives, preparation method and pharmaceutical compositions containing them” (priority 2000, dated 2005).

The test system of experiment [1] is Lewis lung carcinoma (LLC). Kind of experiment: Anti-tumour activity on Lewis lung carcinoma. The format is in vivo, B6D2F1 mice. The note with it: D 4, 8, 12; for T/C %: increase in survival time; for Survivors D90: surviving animals on day 90, 7 animals per group. From the text: Lewis lung carcinoma (LLC) is a solid tumour that appeared spontaneously in the lungs of a C57B1/6 mouse and is maintained by successive transplants of fragments by the s.c. route. The LLC was obtained from the Division of Cancer Treatment, Tumor Repository, National Cancer Institute, Frederick, Md., USA. The mice, which are 4 to 6 weeks old, were obtained from Iffa Credo (Lyon, France), and weighed from 20 to 22 g at the beginning of the experiment.
On the first day of the experiment (D0), the tumours are removed and cut into fragments of approximately 30 mg which are immediately grafted by the s.c. route into the B6D2F1 mice. The mice into which the fragments have been implanted are then randomly divided into the treated groups and the control group (7 animals per group).
The parameter used for evaluating the anti-tumour activity is the increase in survival time.
In addition, the number of surviving animals in each group is counted at the end of the experiment on day 90.
The products were administered in accordance with the scheme shown below. The results are expressed as % T/C, calculated in the same manner as in the preceding test: […]

The test system of the next experiment is L1210 cells. Put plainly: Action on the cell cycle (propidium iodide). The format is cell-based, murine. Conditions: 100 nM, after 21 hours; control: 20%. Here is the method:
L1210 cells are incubated for 21 hours at 37° C. in the presence of various concentrations of test compounds. The cells are then fixed using 70% ethanol (v/v), washed twice in PBS and incubated for 30 minutes at 20° C. in PBS that contains 100 μg/ml of RNAse and 50 μg/ml of propidium iodide. The results are expressed as a percentage of the cells that have accumulated in the G2+M phase after 21 hours compared with the control (control: 20%). At a concentration of 100 nM, the compound of Example 6 induces an 86% accumulation of the cells in the G2+M phase after 21 hours.

Another experiment relates to P388 (murine leukaemia). Put plainly: Anti-tumour activity on P388 leukaemia. In kind it is in vivo, female BDF1 mice. Conditions: 6.25 mg/kg, intravenous route on day 1; tumour cells inoculated i.p. Here is the method: Line P388 (murine leukaemia) was supplied by the National Cancer Institute (Frederick, USA). The tumour cells (10^6 cells) were inoculated on day 0 into the peritoneal cavity of female BDF1 mice (Iffa-Credo, France) weighing from 18 to 20 g (groups of 6 animals).
The products were administered by the intravenous route on day 1.
The anti-tumour activity is expressed as % T/C: [formula] For information only, the compound of Example 6 is active against P388 leukaemia and induces a T/C of 203% at 6.25 mg/kg. *Anti-tumour Activity of the Compounds on Lewis Lung Carcinoma: […]

The next experiment concerns murine leukaemia L1210. Kind of experiment: In vitro cytotoxicity, Microculture Tetrazolium Assay. The format is cell-based. Conditions: exposure for four doubling periods (48 or 96 hours). Here is the method:
(§1) The compounds of the invention were tested on various human and murine cell lines: • murine leukaemia L1210, • epidermoid carcinoma A-431, • non-small-cell lung carcinoma A549, • small-cell lung carcinoma H69, • colon carcinoma HT29, • buccal epidermoid carcinoma KB-3-1.
(§2) The cells are cultured in RPMI 1640 complete culture medium comprising 10% foetal calf serum, 2 mM glutamine, 50 units/ml of penicillin, 50 μg/ml of streptomycin and 10 mM Hepes, pH 7.4. The cells are distributed on microplates and are exposed to the cytotoxic compounds for four doubling periods, that is to say 48 hours or 96 hours. The number of viable cells is then quantified by a colorimetric assay, the Microculture Tetrazolium Assay (J. Carmichael et al., Cancer Res.; 47, 936-942, (1987)). The results are expressed as IC50, the cytotoxic concentration that inhibits the proliferation of the treated cells by 50%.

For experiment [2], the system named is non-small-cell lung carcinoma A549. Described as above. The format is cell-based, human. Conditions: exposure for four doubling periods (48 or 96 hours). Here is the method:
as §1, §2

In experiment [3] the test system is buccal epidermoid carcinoma KB-3-1. Described as above. The note with it: exposure for four doubling periods (48 or 96 hours). In kind it is cell-based, human. Here is the method: as §1, §2
The subject of experiment [4] is small-cell lung carcinoma H69. Described as above. The format is cell-based, human. Conditions: exposure for four doubling periods (48 or 96 hours). How it is done:
as §1, §2

For experiment [5], the system named is epidermoid carcinoma A-431. Described as above. The format is cell-based, human. Conditions: exposure for four doubling periods (48 or 96 hours). Here is the method: as §1, §2
The subject of the next experiment is colon carcinoma HT29. The experiment is described as above. In kind it is cell-based, human. Conditions: exposure for four doubling periods (48 or 96 hours). How it is done:
as §1, §2

Consider `COc1cc([C@@H]2c3cc4c(cc3[C@@H](OC(=O)N(C)CCN(C)C)[C@@H]3COC(=O)[C@@H]23)OCO4)cc(OC)c1O` [Example 1, (5S,5aS,8aS,9R)-9-(4-Hydroxy-3,5-dimethoxyphenyl)-8-oxo-5,5a,6,8,8a,9-hexahydro-furo[3′,4′:6,7]naphtho[2,3-d][1,3] dioxol-5-yl 2-(dimethylamino)ethyl(methyl)carbamate], for which, in [1] (25 mg/kg i.v.), the T/C % stood at 165% and the “Survivors D90” value is 1/7.
With “(5S,5aS,8aS,9R)-9-(4-Hydroxy-3,5-dimethoxyphenyl)-8-oxo-5,5a,6,8,8a,9-hexahydro-furo[3′,4′:6,7]naphtho[2,3-d][1,3]dioxol-5-yl-2-(dimethylamino)ethylcarbamate [Example 6]”, the “accumulation of the cells in the G2+M phase” value in the experiment with L1210 cells stood at 86%. Also, the T/C with P388 (murine leukaemia) was determined as 203%. The IC50 in the experiment on murine leukaemia L1210 turned out to be 38 nM; in experiment [2] it was 46 nM; in experiment [3] it was 85 nM; in experiment [4], 96 nM; in experiment [5], 71 nM; in the experiment on colon carcinoma HT29 it was 121 nM. This molecule gave a T/C % in experiment [1] (3.12 mg/kg i.v.) of 168%. For the same molecule, the “Survivors D90” value in experiment [1] (3.12 mg/kg i.v.) is listed as 1/7.

Broadly, the T/C is the ratio of treated to control. The term IC50 denotes the point on the concentration scale where inhibition reaches its midpoint.
